Results from publication PMC9696974 (Pharmaceutics, 2022).
Where two headings read alike, the source gives them in different places.

What was measured:
[1] = test system: A549 cells; test: Mitochondrial ROS (MitoSOX Red); assay type: cell-based, human; conditions: A549, 1 µM plus UV irradiation, vs DMSO and 1M alone
Protocol: For measuring mitochondrial ROS, A549 cells were treated with 1 μM of the respective compound and incubated for 90 min (37 °C, 5% CO2), allowing the compound to enter to cells. Mitochondrial superoxide production was assessed with MitoSOX Red reagent (Thermo Fisher Scientific, Waltham, MA). The cells were washed with PBS and trypsinized, and then kept on ice unless otherwise specified. Cells were distributed into small tubes (3 × 10^5 cells per tube) and resuspended in 5 µM MitoSOX solution prepared in PBS. The cells were incubated on a thermomixer for 30 min at 37 °C, with shaking (300 rpm), in the dark, followed by two washes with PBS. Then, cells dyed with MitoSOX were re-suspended in 400 µL of PBS and distributed into black 96-well plates, 120 µL per well (in triplicate). A Tecan Infinite 200 fluorescence microplate reader with 485/520 and 520/590 nm excitation/emission wavelengths was used to measure MitoSOX fluorescence.

[2] = molecular target: AU-RNA (poly A-poly U); test: Fluorimetric titration with AU-RNA, Scatchard equation; assay type: binding; conditions: pH 7, sodium cacodylate buffer, I = 0.05 M
Protocol: (§1) Experiments were conducted in an aqueous buffer solution (pH = 7.0 or pH= 5.0, I = 0.05 M, sodium cacodylate buffer). For the UV-Vis spectra were used Varian Cary 100 Bio spectrometer, for fluorescence spectra we used the Varian Cary Eclipse fluorimeter and for CD spectra we used the JASCO J815 spectropolarimeter, all conducted at 25.0 °C using appropriate quartz cuvettes (path length: 1 cm).
(§2) Polynucleotides were purchased as noted: poly dAdT-poly dAdT, poly dGdC-poly dGdC, poly A-poly U (ds-RNA), (Sigma-Aldrich, Schnelldorf, Germany), calf thymus (ct)-DNA (Sigma-Aldrich, Schnelldorf, Germany) and dissolved in sodium cacodylate buffer, I = 0.05 M, pH = 7.0. The ct-DNA was sonicated and filtered through a 0.45 µm filter to obtain mostly short (ca. 100 base pairs) rod-like B-helical DNA fragments. The concentration of DNA or RNA was determined spectroscopically as the c(nucleobase) using producer-provided molar extinction coefficients.
(§3) Fortunately, strong emission from the compounds studied allowed fluorimetric titrations to be performed at much lower concentrations of the dyes (c = 5 × 10^−8 M), thus preventing precipitation of non-methylated 1 or 2, and allowing for the collection of numerous data points at excess of DNA/RNA binding sites over c(dye). […]

[3] = molecular target: AT-DNA (poly dAdT-poly dAdT); test: Fluorimetric titration with AT-DNA, Scatchard equation; assay type: binding; conditions: pH 7, sodium cacodylate buffer, I = 0.05 M
Protocol: as §1, §2, §3

[4] = test system: ct-DNA; design: method as in PMID 33231335; conditions: I = 50 mM, cited from earlier work
[5] = molecular target: GC-DNA (poly dGdC-poly dGdC); test: Fluorimetric titration with GC-DNA, Scatchard equation; assay type: binding; conditions: pH 7, sodium cacodylate buffer, I = 0.05 M
Protocol: as §1, §2, §3

[6] = Solubility in water; assay type: physicochemical
[7] = pKa from pH dependence of UV/vis spectrum; assay type: physicochemical; conditions: water (0.001 M HCl in miliQ water, titrated with NaOH), UV/vis spectra vs pH in water, c = 2.0 × 10^−5 M

SMILES	mtROS levels (MitoSOX Red) [1]	Binding constant logKs AU-RNA [2]	Binding constant logKs AT-DNA [3]	∆Tm ct-DNA ([4]; r = 0.2, pH 7.0, sodium cacodylate buffer)	∆Tm ct-DNA ([4]; r = 0.3, pH 7.0, sodium cacodylate buffer)	Binding constant logKs GC-DNA [5]	Solubility in water [6]	pKa [7]
C[n+]1ccc(-c2cc3ccc4cccc5ccc(c2)c3c45)cc1 [1M, 2-para-N-methylpyridinium pyrene]	significantly increased mtROS levels	5.8	5.9	^c 2 °C	^c 2 °C	7.0	–	–
C[n+]1ccc(-c2cc3ccc4cc(-c5cc[n+](C)cc5)cc5ccc(c2)c3c45)cc1 [2M]	–	8.5	7.1	–	–	9.1	–	–
c1cc2ccc3cc(-c4ccncc4)cc4ccc(c1)c2c34 [compound 1]	–	–	–	–	–	–	poorly soluble in water	~5
